From patent US20240246908A1 (ORION CORPORATION, priority 2021, published 2024)
pIC50: −log10 of the molar value.

system: YAP-TEAD; assay: TEAD inhibition, Hippo Pathway TEAD Reporter MCF-7 luciferase assay; assay type: cell-based; settings: Homo sapiens, MCF7, 24 h, Hippo Pathway TEAD Reporter MCF-7 cells, luciferase activity after 24 h; read-out: IC50 of the test compounds on YAP-TEAD inhibition (Group)
Outline: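 IC50 derived from ONE-Glo luciferase luminescence after 24 h compound exposure (11 concentrations in quadruplicate, 0.1% DMSO control). Reporter: MCF-7 line expressing firefly luciferase under TEAD elements, constitutively activated by nuclear YAP1.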

Compound | pIC50
COc1ccc(Oc2ncc(C(F)(F)F)cc2F)cc1NC(=O)[C@@H]1CN(C)C(=O)N1C [Compound 359, (S)—N-(5-((3-Fluoro-5-(trifluoromethyl)pyridin-2-yl)oxy)-2-methoxyphenyl)-1,3-dimethyl-2-oxoimidazolidine-4-carboxamide] | 6.52 to 7.30
CN1C[C@@H](C(=O)Nc2cc(Oc3ccc(C(F)(F)F)cn3)cc3c2OCO3)N(C)C1=O [Compound 360, (S)-1,3-Dimethyl-2-oxo-N-(6-((5-(trifluoromethyl)pyridin-2-yl)oxy)benzo[d]-[1,3]dioxol-4-yl)imidazolidine-4-carboxamide] | 6.52 to 7.30
CN1C(=O)NC[C@H]1C(=O)Nc1cc(Oc2ccc(C(F)(F)F)cn2)c(F)cc1F [Compound 361, (S)—N-(2,4-Difluoro-5-((5-(trifluoromethyl)pyridin-2-yl)oxy)phenyl)-3-methyl-2-oxoimidazolidine-4-carboxamide] | > 7.30
CN1C(=O)NC[C@H]1C(=O)Nc1cc(F)cc(Oc2ccc(C(F)(F)F)cn2)c1 [Compound 362, (S)—N-(3-Fluoro-5-((5-(trifluoromethyl)pyridin-2-yl)oxy)phenyl)-3-methyl-2-oxoimidazolidine-4-carboxamide] | > 7.30
CN1C(=O)CC[C@H]1C(=O)Nc1cc(Oc2ccc(C(F)(F)F)cc2)ccc1F [Compound 363, (S)—N-(2-Fluoro-5-(4-(trifluoromethyl)phenoxy)phenyl)-1-methyl-5-oxo-pyrrolidine-2-carboxamide] | > 7.30
CN1C[C@@H](C(=O)Nc2cc(Oc3ccc(C(F)(F)F)cn3)cc3c2OCC3)N(C)C1=O [Compound 364, (S)-1,3-Dimethyl-2-oxo-N-(5-((5-(trifluoromethyl)pyridin-2-yl)oxy)-2,3-dihydrobenzofuran-7-yl)imidazolidine-4-carboxamide] | 6.52 to 7.30
CN1C(=O)NC[C@H]1C(=O)Nc1cc(Oc2ccc(C(F)(F)F)cc2)ccc1F [Compound 365, (S)—N-(2-Fluoro-5-(4-(trifluoromethyl)phenoxy)phenyl)-3-methyl-2-oxo-imidazolidine-4-carboxamide] | > 7.30
CN1C(=O)CCC1C(=O)Nc1cc(Oc2cccc(C(F)(F)F)c2)ccc1Br (stereo not shown) [Compound 366, N-(2-Bromo-5-(3-(trifluoromethyl)phenoxy)phenyl)-1-methyl-5-oxopyrrolidine-2-carboxamide] | 5.70 to 6.52
CN1C(=O)CCC1C(=O)Nc1cc(Oc2ccc(C(F)(F)F)cc2)ccc1C#N (stereo not shown) [Compound 367, N-(2-Cyano-5-(4-(trifluoromethyl)phenoxy)phenyl)-1-methyl-5-oxopyrrolidine-2-carboxamide] | 5.70 to 6.52
CN1C(=O)CCC1C(=O)Nc1cc(Oc2ccc(C(F)(F)F)cn2)ccc1F (stereo not shown) [Compound 368, N-(2-Fluoro-5-((5-(trifluoromethyl)pyridin-2-yl)oxy)phenyl)-1-methyl-5-oxopyrrolidine-2-carboxamide] | 6.52 to 7.30
COc1ccc(Oc2ccc(C(F)(F)F)cc2)cc1NC(=O)[C@@H]1C[C@@H](O)CN1 [Compound 370, (2S,4R)-4-Hydroxy-N-(2-methoxy-5-(4-(trifluoromethyl)phenoxy)phenyl)pyrrolidine-2-carboxamide] | 5.70 to 6.52
COc1ccc(Oc2ccc(C(F)(F)F)cc2)cc1NC(=O)[C@@H]1CCC(=O)N1C(C)=O [Compound 371, (S)-1-Acetyl-N-(2-methoxy-5-(4-(trifluoromethyl)phenoxy)-phenyl)-5-oxopyrrolidine-2-carboxamide] | 6.52 to 7.30
CN1C(=O)CCC1C(=O)Nc1cc(Oc2ccc(C(F)(F)F)cc2)ccc1O (stereo not shown) [Compound 372, N-(2-Hydroxy-5-(4-(trifluoromethyl)phenoxy)phenyl)-1-methyl-5-oxopyrrolidine-2-carboxamide] | 5.70 to 6.52
CN1C(=O)NC[C@H]1C(=O)Nc1cc(Oc2ccc(C(F)(F)F)cn2)ccc1O [Compound 373, (S)—N-(2-Hydroxy-5-((5-(trifluoromethyl)pyridin-2-yl)oxy)phenyl)-3-methyl-2-oxoimidazolidine-4-carboxamide] | 5.70 to 6.52
COc1ccc(Oc2ccc(C(F)(F)F)cc2)cc1NC(=O)C1CNCC(=O)N1C (stereo not shown) [Compound 374, N-(2-Methoxy-5-(4-(trifluoromethyl)phenoxy)phenyl)-1-methyl-6-oxopiperazine-2-carboxamide] | 5.70 to 6.52
CNC(CCC(=O)O)C(=O)Nc1cc(Oc2ccc(C(F)(F)F)cc2)ccc1OC (stereo not shown) [Compound 375] | > 7.30
CN1C(=O)CNCC1C(=O)Nc1cc(Oc2ccc(C(F)(F)F)cc2)cc2c1OCC2 (stereo not shown) [Compound 376, 1-Methyl-6-oxo-N-(5-(4-(trifluoromethyl)phenoxy)-2,3-dihydro-benzofuran-7-yl)piperazine-2-carboxamide] | 6.52 to 7.30
COc1ccc(Oc2ccc(C(F)(F)F)cc2)cc1NC(=O)C1CCC(=O)N1CCC(N)=O (stereo not shown) [Compound 379, 1-(3-Amino-3-oxopropyl)-N-(2-methoxy-5-(4-(trifluoromethyl)-phenoxy)phenyl)-5-oxopyrrolidine-2-carboxamide] | 6.52 to 7.30
COc1ccc(Oc2ccc(C(F)(F)F)cc2)cc1NC(=O)[C@@H]1C[C@H](O)C(=O)N1C [Compound 380, (2S,4S)-4-Hydroxy-N-(2-methoxy-5-(4-(trifluoromethyl)phenoxy)phenyl)-1-methyl-5-oxopyrrolidine-2-carboxamide] | 6.52 to 7.30
COc1ccc(Oc2ccc(C(F)(F)F)cc2)cc1NC(=O)C1CCS(=N)(=O)CC1 (stereo not shown) [Compound 381, 1-Imino-N-(2-methoxy-5-(4-(trifluoromethyl)phenoxy)phenyl)-hexahydro-1λ^6-thiopyran-4-carboxamide 1-oxide] | 6.52 to 7.30
COc1cc(F)c(Oc2ccc(C(F)(F)F)cc2)cc1NC(=O)C1CNC(=O)N1C (stereo not shown) [Compound 382, N-(4-Fluoro-2-methoxy-5-(4-(trifluoromethyl)phenoxy)phenyl)-3-methyl-2-oxoimidazolidine-4-carboxamide] | > 7.30
CN1CC(=O)N(C)C(C(=O)Nc2cc(Oc3ccc(C(F)(F)F)cc3)cc3c2OCC3)C1 (stereo not shown) [Compound 383, 1,4-Dimethyl-6-oxo-N-(5-(4-(trifluoromethyl)phenoxy)-2,3-dihydrobenzofuran-7-yl)piperazine-2-carboxamide] | 6.52 to 7.30
COc1ccc(Oc2ccc(Cl)cc2F)cc1NC(=O)C1CCC(=O)N1C (stereo not shown) [Compound 385, N-(5-(4-Chloro-2-fluorophenoxy)-2-methoxyphenyl)-1-methyl-5-oxopyrrolidine-2-carboxamide] | > 7.30
COc1ccc(NC(=O)C2CCC(=O)N2C)cc1Cc1ccc(C(F)(F)F)cc1 (stereo not shown) [Compound 387, N-(4-Methoxy-3-(4-(trifluoromethyl)benzyl)phenyl)-1-methyl-5-oxo-pyrrolidine-2-carboxamide] | 5.70 to 6.52
COc1ccc(Oc2ccc(C(F)(F)F)cc2)cc1NC(=O)c1coc(=O)[nH]1 [Compound 388, N-(2-Methoxy-5-(4-(trifluoromethyl)phenoxy)phenyl)-2-oxo-2,3-dihydrooxazole-4-carboxamide] | 5.70 to 6.52

Continued, values first:

pIC50 | Compound
5.70 to 6.52 | COc1ccc(Oc2ccc(F)c(F)c2)c(C)c1NC(=O)C1CCC(=O)N1C (stereo not shown) [Compound 389, N-(3-(3,4-Difluorophenoxy)-6-methoxy-2-methylphenyl)-1-methyl-5-oxopyrrolidine-2-carboxamide]
5.70 to 6.52 | COc1ccc(Oc2cccc(C#N)c2)cc1NC(=O)C1CCC(=O)N1C (stereo not shown) [Compound 390, N-(5-(3-Cyanophenoxy)-2-methoxyphenyl)-1-methyl-5-oxopyrrolidine-2-carboxamide]
> 7.30 | COc1ccc(Oc2ccc(C(F)(F)F)c(OC)c2)cc1NC(=O)C1CCC(=O)N1C (stereo not shown) [Compound 391, N-(2-Methoxy-5-(3-methoxy-4-(trifluoromethyl)phenoxy)phenyl)-1-methyl-5-oxopyrrolidine-2-carboxamide]
5.70 to 6.52 | COc1ccc(Oc2ccc(C(F)(F)F)cc2)cc1NC(=O)c1nnn[nH]1 [Compound 392, N-(2-Methoxy-5-(4-(trifluoromethyl)phenoxy)phenyl)-1H-tetrazole-5-carboxamide]
5.70 to 6.52 | COc1ccc(Oc2cc(C(F)(F)F)ccn2)cc1NC(=O)[C@H]1CCC(=O)N1C [Compound 393, (R)—N-(2-Methoxy-5-((4-(trifluoromethyl)pyridin-2-yl)oxy)phenyl)-1-methyl-5-oxopyrrolidine-2-carboxamide]
5.70 to 6.52 | COc1ccc(Oc2cc(C(F)(F)F)ccn2)cc1NC(=O)[C@@H]1CCC(=O)N1C [Compound 394, (S)—N-(2-Methoxy-5-((4-(trifluoromethyl)pyridin-2-yl)oxy)phenyl)-1-methyl-5-oxopyrrolidine-2-carboxamide]
> 7.30 | COc1ccc(Oc2ccc(C(F)(F)F)c(F)c2)cc1NC(=O)C1CCC(=O)N1C (stereo not shown) [Compound 395]
6.52 to 7.30 | COc1ccc(Oc2ccc(C#N)c(C(F)(F)F)c2)cc1NC(=O)C1CCC(=O)N1C (stereo not shown) [Compound 396, N-(5-(4-Cyano-3-(trifluoromethyl)phenoxy)-2-methoxyphenyl)-1-methyl-5-oxopyrrolidine-2-carboxamide]
5.70 to 6.52 | COc1ccc(Oc2ccc(F)c(C#N)c2)cc1NC(=O)C1CCC(=O)N1C (stereo not shown) [Compound 397, N-(5-(3-Cyano-4-fluorophenoxy)-2-methoxyphenyl)-1-methyl-5-oxopyrrolidine-2-carboxamide]
> 7.30 | COc1ccc(Oc2ccc(C(F)(F)F)cc2F)cc1NC(=O)[C@@H]1CCC(=O)N1C [Compound 398, (S)—N-(5-(2-Fluoro-4-(trifluoromethyl)phenoxy)-2-methoxyphenyl)-1-methyl-5-oxopyrrolidine-2-carboxamide]
> 7.30 | COc1ccc(Oc2cnc(C(F)(F)F)c(F)c2)cc1NC(=O)C1CCC(=O)N1C (stereo not shown) [Compound 399]
> 7.30 | COc1ccc(Oc2ccc(C(F)(F)F)c(F)n2)cc1NC(=O)C1CCC(=O)N1C (stereo not shown) [Compound 400, N-(5-((6-Fluoro-5-(trifluoromethyl)pyridin-2-yl)oxy)-2-methoxyphenyl)-1-methyl-5-oxopyrrolidine-2-carboxamide]
